From US9102648B1, “Bioavailable diacylhydrazine ligands for modulating the expression of exogenous genes via an ecdysone receptor complex” (Intrexon Corporation, priority 2003, dated 2015)
Where two headings read alike, the source gives them in different places.

Experiments:
[1] = tested on: mutated ecdysone receptor-based gene switch; test: In vivo SEAP induction, ligand by IP injection; design: species or system C57BL/6 mouse; settings: for Secreted Alkaline Phosphatase Day 2 / Secreted Alkaline Phosphatase Day 3 / Secreted Alkaline Phosphatase Day 7: IP 26 nmol ligand; for Secreted Alkaline Phosphatase (percentage of GS ™-E ligand induction) Day 2 / Secreted Alkaline Phosphatase (percentage of GS ™-E ligand induction) Day 3 / Secreted Alkaline Phosphatase (percentage of GS ™-E ligand induction) Day 11: mouse serum; for Secreted Alkaline Phosphatase (percentage of GS ™-E ligand induction) Day 2: IP 2.6 μmol ligand 3 days after electroporation, day 2 after ligand; for Secreted Alkaline Phosphatase (percentage of GS ™-E ligand induction) Day 3 / Secreted Alkaline Phosphatase (percentage of GS ™-E ligand induction) Day 11: IP 2.6 μmol ligand; for Secreted Alkaline Phosphatase (percentage of GS ™-E ligand induction) Day 3: day 3 after ligand; for Secreted Alkaline Phosphatase (percentage of GS ™-E ligand induction) Day 11: day 11 after ligand
Description: Applicants' ligands are useful in various applications including gene therapy, expression of proteins of interest in host cells, production of transgenic organisms, and cell-based assays. In vivo induction of a reporter enzyme with various ligands of the present invention was evaluated in a C57BL/6 mouse model system containing a gene switch.
Each element of the gene switch was on a separate plasmid. Receptor expression was under the control of a CMV promoter (SEQ ID NO: 15). Induction was evaluated by the amount of reporter protein expressed in the presence of ligand.
SEAP expression in serum of mice was evaluated after electroporation of the gene switch into mouse quadriceps. Mice were anesthetized with 2 μL/g of a mixture of ketamine (100 mg/mL) and xylazine (20 mg/mL). Animals were then shaved, DNA vectors injected into the muscle in a volume of 2×50 μL polyglutamic acid (12 mg/mL water), electrode conductivity gel applied, and an electrode caliber (1 cm×1 cm; model 384) was placed on hind leg. The muscle was electroporated with 200 V/cm, 8 times, for 20 msec/pulse, at 1 sec time intervals. The transverse electrical field direction was reversed after the animals received half of the pulses. Electroporation was performed with an ECM 830 electroporator from BTX Molecular Delivery Systems.
In some experiments mice received an intraperitoneal injection (IP) of 2.6 μmol of ligand in 50 μL of DMSO 3 days after electroporation of the gene switch. In other experiments the concentration of ligand was decrease to 26 nmol/50 μL of DMSO/mouse. SEAP expression was evaluated 2-11 days after ligand administration. In other experiments ligand was administered in rodent chow. The chow was prepared by dissolving 2 g of ligand in 20 mL of acetone and adding it to 1 kg of LabDiet 5010 autoclavable chow from Purina Mills. This was thoroughly mixed in a Hobart mixer and then mixed for an additional 15 min in a Cross Blend mixer. Animals received chow ad libitum for 1, 2, or 3 days. All values are the average from four animals. Background SEAP in sera from animals treated with vector alone without ligand addition was 0-11 ng/mL serum.
Mouse serum was obtained by centrifugation of blood acquired by retroorbital bleeding with a small glass capillary tube. SEAP quantification was determined using a Clontech Great Escape chemiluminescence kit and by comparison with the Clontech SEAP standard.
Table 9: In vivo evaluation of ligand-mediated induction of a mutated ecdysone receptor-based gene switch. SEAP expression in serum of mice was evaluated after electroporation of the gene expression cassettes into mouse quadriceps. Mice received an IP injection of 2.6 μmol of ligand 3 days after electroporation. SEAP expression was evaluated 2-11 days after ligand administration. Each dose group was composed of four animals. Percentage of GS™-E ligand induction was determined by averaging SEAP expression from four animals divided by the average SEAP expression induced with GS™-E ligand and then multiplying by 100.
Table 10: Induction of gene switch expression with low concentrations of ligand. SEAP expression in serum of mice was evaluated after electroporation of the gene expression cassettes into mouse quadriceps. Mice received an IP injection of 26 nmol of ligand or 130 nmol GS™-E ligand 3 days after electroporation. SEAP expression was evaluated 2-7 days after ligand administration. Values are the average from 4 animals.

[2] = target: GAL4 DBD (1-147)-CfEcR(DEF)/VP16AD-βRXREF-LmUSPEF (Choristoneura fumiferana, UniProt O77240); test: cell-based; settings: for Fold Induction, 27-63 Assay, 3.3 uM: 3.3 uM ligand; for Fold Induction, 27-63 Assay, 3.3 uM / Fold Induction, 27-63 Assay, 33 uM: RLU ligand treated / RLU DMSO treated cells; for Fold Induction, 27-63 Assay, 33 uM: 33 uM ligand; for 27-63 assay Rel Max FI: maximum fold induction at any concentration relative to that of GS-E ligand, CHO 27-63 cells
[3] = read-out: 27-63 assay EC50, CHO 27-63 stable cell line, luciferase reporter, average of two wells

SMILES | Secreted Alkaline Phosphatase Day 2 [1] | Secreted Alkaline Phosphatase Day 3 [1] | Secreted Alkaline Phosphatase Day 7 [1] [ng/ml mouse sera] | Secreted Alkaline Phosphatase (percentage of GS ™-E ligand induction) Day 2 [1] | Secreted Alkaline Phosphatase (percentage of GS ™-E ligand induction) Day 3 [1] | Secreted Alkaline Phosphatase (percentage of GS ™-E ligand induction) Day 11 [1] | Fold Induction, 27-63 Assay, 3.3 uM ([2]; average of two wells) | Fold Induction, 27-63 Assay, 33 uM ([2]; average of two wells) | 27-63 assay Rel Max FI [2] | EC50 [2, 3] [nM] | EC50 [2] [nM] | fold induction at 3.3 µM ([2]; read-out: Fold Induction, 27-63 Assay, 3.3 uM) | fold induction at 33 µM ([2]; read-out: Fold Induction, 27-63 Assay, 33 uM)
CCCC(N(NC(=O)c1cccc(OC)c1CC)C(=O)c1cc(C)cc(C)c1)C(C)(C)C (stereo not shown) [RG-115830] | 6,835 ng/ml mouse sera | 5,339 ng/ml mouse sera | 590 | 120 percentage of GS ™-E ligand induction | 158 percentage of GS ™-E ligand induction | 3,558 percentage of GS ™-E ligand induction | 2287 | 353 | 1.049 | 36 | – | – | –
CCc1c(OC)cccc1C(=O)NN(C(=O)c1cc(C)cc(C)c1)C(CC)C(C)(C)C (stereo not shown) [RG-115832] | 2,349 ng/ml mouse sera | 1,807 ng/ml mouse sera | 149 | 147 percentage of GS ™-E ligand induction | 189 percentage of GS ™-E ligand induction | 4,183 percentage of GS ™-E ligand induction | 2063 | 1435 | 1.075 | 35 | – | – | –
CCc1c(OC)cccc1C(=O)NN(C(=O)c1cc(OC)c(C)c(OC)c1)C(CC)C(C)(C)C (stereo not shown) [RG-115831] | – | – | – | 118 percentage of GS ™-E ligand induction | 121 percentage of GS ™-E ligand induction | 105 percentage of GS ™-E ligand induction | 2063 | 1435 | 1.366 | 96 | – | – | –
CCC(N(NC(=O)c1cccc(OC)c1C)C(=O)c1cc(OC)c(C)c(OC)c1)C(C)(C)C (stereo not shown) [RG-115820, 3,5-dimethoxy-4-methyl-benzoic acid N-(1-ethyl-2,2-dimethyl-propyl)-N′-(3-methoxy-2-methyl-benzoyl)-hydrazide] | – | – | – | 82 percentage of GS ™-E ligand induction | 63 percentage of GS ™-E ligand induction | 399 percentage of GS ™-E ligand induction | – | – | 1.270 | – | 193 | 2860 | 1970
CCCC(N(NC(=O)c1cccc(OC)c1C)C(=O)c1cc(OC)c(C)c(OC)c1)C(C)(C)C (stereo not shown) [RG-115824] | – | – | – | 102 percentage of GS ™-E ligand induction | 101 percentage of GS ™-E ligand induction | 415 percentage of GS ™-E ligand induction | 2675 | 948 | 1.218 | 36 | – | – | –
Cc1c(C(=O)NN(C(=O)c2cc(F)cc(F)c2)C(C)(C)C)ccc2c1CCCO2 [RG-115207] | – | – | – | – | – | – | 1332 | 1279 | 0.704 | 593 | – | – | –
CC(O)c1ccc(C(=O)NN(C(=O)c2cc(F)cc(F)c2)C(C)(C)C)cc1 (stereo not shown) [RG-100342] | – | – | – | – | – | – | 2 | 1287 | 0.674 | 17700 | – | – | –
Cc1c(C(=O)NN(C(=O)c2cccc(F)c2)C(C)(C)C)ccc2c1CCCO2 [RG-115278] | – | – | – | – | – | – | 1250 | 906 | 0.720 | 885 | – | – | –
CCc1c(C(=O)NN(C(=O)c2cc(Cl)nc(Cl)c2)C(C)(C)C)ccc2c1OCCO2 [RG-115297] | – | – | – | – | – | – | 1544 | 946 | 0.986 | 330 | – | – | –
COc1cccc(C(=O)NN(C(=O)c2cc(C)ccc2[N+](=O)[O-])C(C)(C)C)c1C [RG-100569] | – | – | – | – | – | – | 884 | 841 | 0.720 | 287 | – | – | –
COc1cc(C)cc(C(=O)N(NC(=O)c2cccc(OC)c2C)C(C)(C)C)c1 [RG-100767] | – | – | – | – | – | – | 2097 | 2171 | 1.218 | 334 | – | – | –
Cc1c(C(=O)NN(C(=O)c2cc(F)c(F)c(F)c2F)C(C)(C)C)ccc2c1CCCO2 [RG-115518] | – | – | – | – | – | – | 1640 | 1126 | 0.866 | 1050 | – | – | –
COc1cccc(C(=O)NN(C(=O)c2cc(C)cc(C)c2)C(C)(C)C)c1N [RG-115378] | – | – | – | – | – | – | 1493 | 1407 | 0.863 | 758 | – | – | –
CCc1c(OC)cccc1C(=O)NN(C(=O)c1cc(C)cc(COC(C)=O)c1)C(C)(C)C [RG-115223] | – | – | – | – | – | – | 273 | 1935 | 1.167 | 4680 | – | – | –
Cc1c(C(=O)NN(C(=O)c2ccc(F)cc2)C(C)(C)C)ccc2c1CCCO2 [RG-115118] | – | – | – | – | – | – | 1063 | 914 | 0.612 | 394 | – | – | –
CCc1c(OC)cccc1C(=O)NN(C(=O)c1cc(C)cc(C)c1)C(C)(C)C=NNC(=O)C(N)=O [RG-115597, oxamic carbazide of 2-ethyl-3-methoxy-benzoic acid N′-(3,5-dimethyl-benzoyl)-N′-(1,1-dimethyl-2-oxo-ethyl)-hydrazide] | – | – | – | – | – | – | 2 | 2065 | 1.26 | 9830 | – | – | –
Cc1c(C(=O)NN(C(=O)c2cc(F)c(Cl)cc2Cl)C(C)(C)C)ccc2c1CCCO2 [RG-115539] | – | – | – | – | – | – | 1076 | 534 | 0.595 | 1180 | – | – | –
Cc1c(C(=O)NN(C(=O)c2ccc(F)cc2)C(C)(C)C)ccc2c1OCO2 [RG-100448] | – | – | – | – | – | – | 66 | 847 | 0.609 | 5290 | – | – | –
COc1cccc(C(=O)N(NC(=O)c2ccc3c(c2C)OCCO3)C(C)(C)C)c1 [RG-100360] | – | – | – | – | – | – | 1627 | 1353 | 0.873 | 615 | – | – | –
CCc1c(C(=O)NN(C(=O)c2ccccc2OC)C(C)(C)C)ccc2c1OCCO2 [RG-100690] | – | – | – | – | – | – | 1136 | 1047 | 0.727 | 200 | – | – | –
COc1ccccc1C(=O)N(NC(=O)c1ccc2c(c1C)CCCO2)C(C)(C)C [RG-115102] | – | – | – | – | – | – | 1154 | 971 | 0.667 | 491 | – | – | –
Cc1c(C(=O)NN(C(=O)c2ccc(F)c(F)c2)C(C)(C)C)ccc2c1CCCO2 [RG-115416] | – | – | – | – | – | – | 2412 | 1867 | 0.721 | 637 | – | – | –
